Reference: patent US20100075930A1, “Salicylic salt compositions and related method of treatment of cardiac conditions” (priority 2008, published 2010)
Where two headings read alike, the source gives them in different places.

Experiments:
[1] = cited from earlier work
[2] = cited from earlier work; remark: listed apart in the source
[3] = low doses, 75-100 mg daily; cited from earlier work
[4] = cited from earlier work; remark: listed apart in the source
[5] = for level of salicylic acid in the blood: 1000 mg under the tongue
Procedure: In order to assess the ability and the rate of absorption of a choline salicylate tablet under the tongue, the following experiment was conducted:

CC(=O)Oc1ccccc1C(=O)O [Aspirin, acetyl salicylic acid]
water solubility [1]: not soluble in water
patients who develop ulcers, perforations, bleeding, obstruction, stricture and/or enteropathy ([2]; patients taking aspirin): More than 22%
reduction of coronary events [3]: 50%
level of salicylic acid in the blood ([4]; after digestion of 1000 mg, reached after 2 hours only): 100 mg/Lt

C[N+](C)(C)CCO.O=C([O-])c1ccccc1O [choline salicylate]
level of salicylic acid in the blood ([5]; after 4 minutes): 21 mg/Lt
level of salicylic acid in the blood ([5]; time 0 min): 0.111 mmol/L
level of salicylic acid in the blood ([5]; time 0 min, conversion factor 0.00724): 15.331 mg/L
level of salicylic acid in the blood ([5]; time 2 min): 0.124 mmol/L
level of salicylic acid in the blood ([5]; time 2 min, conversion factor 0.00724): 17.127 mg/L
level of salicylic acid in the blood ([5]; time 4 min): 0.155 mmol/L
level of salicylic acid in the blood ([5]; time 4 min, conversion factor 0.00724): 21.409 mg/L
level of salicylic acid in the blood ([5]; time 6 min): 0.132 mmol/L
level of salicylic acid in the blood ([5]; time 6 min, conversion factor 0.00724): 18.232 mg/L
level of salicylic acid in the blood ([5]; time 8 min): 0.096 mmol/L
level of salicylic acid in the blood ([5]; time 8 min, conversion factor 0.00724): 13.260 mg/L
level of salicylic acid in the blood ([5]; time 10 min): 0.089 mmol/L
level of salicylic acid in the blood ([5]; time 10 min, conversion factor 0.00724): 12.293 mg/L
level of salicylic acid in the blood ([5]; time 12 min): 0.074 mmol/L
level of salicylic acid in the blood ([5]; time 12 min, conversion factor 0.00724): 10.221 mg/L
level of salicylic acid in the blood ([5]; time 14 min): 0.067 mmol/L
level of salicylic acid in the blood ([5]; time 14 min, conversion factor 0.00724): 9.254 mg/L
level of salicylic acid in the blood ([5]; time 19 min): 0.039 mmol/L
level of salicylic acid in the blood ([5]; time 19 min, conversion factor 0.00724): 5.387 mg/L
level of salicylic acid in the blood ([5]; time 24 min): 0.023 mmol/L
level of salicylic acid in the blood ([5]; time 24 min, conversion factor 0.00724): 3.177 mg/L
level of salicylic acid in the blood ([5]; time 29 min): 0.040 mmol/L
level of salicylic acid in the blood ([5]; time 29 min, conversion factor 0.00724): 5.525 mg/L
level of salicylic acid in the blood ([5]; time 34 min): 0.036 mmol/L
level of salicylic acid in the blood ([5]; time 34 min, conversion factor 0.00724): 4.972 mg/L
level of salicylic acid in the blood ([5]; time 39 min): 0.045 mmol/L
level of salicylic acid in the blood ([5]; time 39 min, conversion factor 0.00724): 6.215 mg/L
level of salicylic acid in the blood ([5]; time 44 min): 0.054 mmol/L
level of salicylic acid in the blood ([5]; time 44 min, conversion factor 0.00724): 7.459 mg/L
salicylic acid presented and available to act in the blood ([5]; 4 minutes after administration, assuming the blood volume is 5 litres): 100 mg
time of salicylic acid blood level peak after administration ([5]; sublingual method): 4 min
reduction of gastrointestinal complications ([2]; as a salt syrup (compared to acid tablet)): 40%
side effects in clinical use ([2]; syrup absorbed through the gastro intestinal tract): no major side effects
time of salicylic acid blood level peak after administration ([4]; oral administration): 2 h
